This note sets out measurements from patent US9700538B2, “Cardiovascular disease primary prevention agent for patients having high blood levels of high-sensitivity C-reactive protein” (MOCHIDA PHARMACEUTICAL CO., LTD., priority 2012, dated 2017).

The test system of the assay is subjects with no history of cardiovascular disease, blood hs-CRP value of at least 1.0 mg/L. The experiment in a line: Hisayama epidemiologic study: events by administration of statin drug and EPA in the high hs-CRP group. In kind it is in vivo, human. The text has this: The Hisayama study is an epidemiologic study of cerebral stroke, cardiovascular disease, and the like that has been conducted with the residents of the town of Hisayama town (population, about 8,400) in Kasuya county of Fukuoka prefecture adjacent to Fukuoka city from 1961. The age and occupation distributions of the residents of Hisayama town were almost identical to those of Japan as a whole, and the residents can be regarded as an average group of Japanese people with substantially no bias. Features of the Hisayama study include participation of all residents (who are at least 40 years old), prospective cohort study, examination and home visit by the stuff of the study, consultation rate (at least 80%), autopsy rate (about 80%), and follow-up rate (at least 99%), and the most characteristic feature of this study is the high rate of autopsy. No diagnosis is more accurate than autopsy in finding out the accurate cause of the death, and the precision of the follow up study is also high. In addition, the Hisayama study periodically adds the residents who have reached 40 years old to the group every 5 years, and estimation of influence of the life style transition as well as change of risk factors was thereby enabled.
3,103 residents of 40 years old or older who were registered in 2002 were used for the subject excluding those who have history of cardiovascular disease and those with no data of EPA/AA ratio. Average follow-up period was 5.1 years.
The group with a blood hs-CRP value of at least 1.0 mg/L (high hs-CRP group) was extracted from the entire subjects. The blood hs-CRP value was quantitated by using a commercially available assay kit.
The high hs-CRP group was further divided into 4 groups by the administration and non-administration of the statin drug and the administration and non-administration of the EPA.
In the table, “statin (−)+EPA (−)” means that neither the statin drug nor the EPA was administered to a subject; “statin (+)+EPA (−)” means that the statin drug was administered but not the EPA; “statin (−)+EPA (+)” means that the statin drug was not administered despite the administration of the EPA; and “statin (+)+EPA (+)” means that both the statin drug and the EPA were administered. Furthermore, “event (−)” and “event (+)” […].

The mark [1] stands for this setting: high hs-CRP group, EPA irrespective of statin, statin drug vs no statin within the group with no EPA.
The mark [2] stands for this setting: number of subjects, high hs-CRP group (hs-CRP ≧1.0 mg/L), average follow-up 5.1 years.

As to `CC/C=C\C/C=C\C/C=C\C/C=C\C/C=C\CCCC(=O)O` [EPA, all-cis-5,8,11,14,17-icosapentaenoic acid], for the setting “entire subjects, irrespective of administration of the statin drug”, the “Cerebral stroke event occurrence (in words)” value is given as “no event occurred”. For the same molecule, under setting [1], the “Cardiovascular disease event occurrence (in words)” value was “no event occurred”, the “Cerebral stroke event occurrence (in words)” value is on record as “no event occurred” and the “Coronary artery disease event occurrence (in words)” value was “no event occurred”. Besides, under setting [2], the “Cardiovascular disease, Event (+)” value came to 0; the “Cardiovascular disease, Event (−)” value turned out to be 4; the “Cerebral stroke, Event (+)” value turned out to be 0; the “Cerebral stroke, Event (−)” value is reported as 4. Besides, under setting [2], the “Coronary artery disease, Event (+)” value was 0 and the “Coronary artery disease, Event (−)” value is given as 4.
